According to the supplement of paper PMC10307832:

Experiments:
Test in all cases: relative viability (nuclei count vs DMSO), 5 days (fraction); higher = more cells survive
Etoposide + Foretinib = compound: COc1cc([C@@H]2c3cc4c(cc3[C@@H](O[C@@H]3O[C@@H]5CO[C@@H](C)O[C@H]5[C@H](O)[C@H]3O)[C@H]3COC(=O)[C@H]23)OCO4)cc(OC)c1O [Etoposide] + COc1cc2c(Oc3ccc(NC(=O)C4(C(=O)Nc5ccc(F)cc5)CC4)cc3F)ccnc2cc1OCCCN1CCOCC1 [Foretinib] (partner 0.25 µM)
Summary of the method: (§1)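 Nuclei were stained with Hoechst during a one-step fixation (final 0.05% Triton X-100, 1% formaldehyde, 1 ug/ml Hoechst) carried out 5 days after dosing, then counted on 4× images. The cells, lung cancer lines in 1536-well plates, had been dosed by pin tool the day after seeding with one drug alone or a fixed anchor-drug dose plus five library-drug doses (not always all listed) in √10 steps. Relative viability is the nuclei count in treated wells divided by that in vehicle wells, and each value is the median of duplicate plates.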

Etoposide + Pictilisib = compound: COc1cc([C@@H]2c3cc4c(cc3[C@@H](O[C@@H]3O[C@@H]5CO[C@@H](C)O[C@H]5[C@H](O)[C@H]3O)[C@H]3COC(=O)[C@H]23)OCO4)cc(OC)c1O [Etoposide] + CS(=O)(=O)N1CCN(Cc2cc3nc(-c4cccc5[nH]ncc45)nc(N4CCOCC4)c3s2)CC1 [Pictilisib] (partner 1 µM)
Summary of the method: as §1

Bleomycin = compound: CC1=C(N=C(N=C1N)[C@H](CC(=O)N)NC[C@@H](C(=O)N)N)C(=O)N[C@@H]([C@H](C2=CN=CN2)OC3C(C(C(C(O3)CO)O)O)OC4C(C(C(C(O4)CO)O)OC(=O)N)O)C(=O)N[C@H](C)[C@H]([C@H](C)C(=O)N[C@@H]([C@@H](C)O)C(=O)NCCC5=NC(=CS5)C6=NC(=CS6)C(=O)NCCC[S+](C)C)O [Bleomycin]; conditions: main component drawn
Summary of the method: (§2)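 Nuclei counted with MetaXpress define viability as the ratio of treated to vehicle wells, given as a median across plates. The lung cancer cell lines were in 1536-well plates, pinned with five √10-spaced library-drug doses and imaged at 4× after 5 days and Hoechst staining. Plates passed with control CV below 25% and at least one doubling.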

Etoposide = compound: COc1cc([C@@H]2c3cc4c(cc3[C@@H](O[C@@H]3O[C@@H]5CO[C@@H](C)O[C@H]5[C@H](O)[C@H]3O)[C@H]3COC(=O)[C@H]23)OCO4)cc(OC)c1O [Etoposide]
Summary of the method: as §2

**Q.** With UMC-11 as the cell line, how does the relative viability (Etoposide + Foretinib; first compound 0.01 µM) read?
**A.** 1.1

**Q.** What about the relative viability (Etoposide + Foretinib; first compound 0.03162 µM) of the same cell line?
**A.** 1.17

**Q.** And the relative viability (Etoposide + Foretinib; first compound 0.1 µM)?
**A.** 0.928

**Q.** And the relative viability (Etoposide + Foretinib; first compound 0.3162 µM)?
**A.** 0.566

**Q.** What about the relative viability (Etoposide + Foretinib; first compound 1 µM) of the same cell line?
**A.** 0.322

**Q.** And the relative viability (Etoposide + Pictilisib; first compound 0.01 µM)?
**A.** 0.837

**Q.** And the relative viability (Etoposide + Pictilisib; first compound 0.03162 µM)?
**A.** 0.938

**Q.** And the relative viability (Etoposide + Pictilisib; first compound 0.3162 µM)?
**A.** 0.339

**Q.** And the relative viability (Etoposide + Pictilisib; first compound 1 µM)?
**A.** 0.194

**Q.** And the relative viability (Bleomycin; 0.01 µM)?
**A.** 0.936

**Q.** What about the relative viability (Bleomycin; 0.03162 µM) of the same cell line?
**A.** 0.918

**Q.** And the relative viability (Bleomycin; 0.1 µM)?
**A.** 0.922

**Q.** And the relative viability (Bleomycin; 0.3162 µM)?
**A.** 0.769

**Q.** What about the relative viability (Bleomycin; 1 µM) of the same cell line?
**A.** 0.496

**Q.** And the relative viability (Etoposide; 0.01 µM)?
**A.** 0.999

**Q.** What about the relative viability (Etoposide; 0.03162 µM) of the same cell line?
**A.** 1.06

**Q.** And the relative viability (Etoposide; 0.1 µM)?
**A.** 0.507

**Q.** What about the relative viability (Etoposide; 0.3162 µM) of the same cell line?
**A.** 0.607

**Q.** What about the relative viability (Etoposide; 1 µM) of the same cell line?
**A.** 0.343
